The nature of series [1]: Stability studies of the two crystal forms (XRPD, TGA, HPLC). In kind it is physicochemical. Conditions: for Chemical stability (HPLC) / Crystal form transformation (XRPD and TGA): 40° C./75% RH (monohydrate also 40° C. without humidity control). As for the experimental part:
[…] At room temperature, humidity was maintained at 0% RH. Humidity was not controlled for the higher temperatures.
The samples were analyzed by XRPD and TGA.
Non-micronized samples of monohydrate and anhydrate were stored at 40° C./75% RH for three months. The monohydrate was also stored at 40° C. without humidity control. During the three months, the samples were checked after two weeks, one month, two months, and three months.

The nature of series [2]: Dynamic vapor sorption (hygroscopicity) of the two crystal forms. As to conditions: for DVS weight gain: 0–90% RH; for Hygroscopicity (DVS): result in words. Type of series: physicochemical. From the text: Dynamic Vapor Sorption (Allentown, Pa.) was used to measure the hygroscopicity of the anhydrate and monohydrate of the invention (see FIGS. 6 and 7). The step conditions were three hours each at 0%, 30%, 52.5%, 75% and 90% RH, two full cycles.

Regarding `C=Cc1cc(O)cc2nc(-c3ccc(O)c(F)c3)oc12` [Anhydrate, 2-(3-fluoro-4-hydroxyphenyl)-7-vinyl-1,3-benzoxazol-5-ol], the “Crystal form transformation (XRPD)” value in series [1] (micronized, 25° C./60% RH, three months) is given as “did not transform to the monohydrate”; in series [1] (micronized, 40° C./75% RH, one month), “partially transform to the monohydrate”; in series [1] (non-micronized, 40° C./75% RH, separate study), “did not show any obvious transformation”. Further, in series [1] (non-micronized, three months), the “Chemical stability (HPLC)” value was “chemically stable”. Further, the “Crystal form transformation (XRPD and TGA)” value in series [1] (non-micronized, three months) is listed as “did not transform”. The DVS weight gain in series [2] was 0.2% gain (0–90% RH). In addition, in series [2], the “Hygroscopicity (DVS)” value was “largely non-hygroscopic”.
For the compound `C=Cc1cc(O)cc2nc(-c3ccc(O)c(F)c3)oc12` [Monohydrate, 2-(3-fluoro-4-hydroxyphenyl)-7-vinyl-1,3-benzoxazol-5-ol], the “Solid-state stability (XRPD and TGA)” value in series [1] (56° C., humidity not controlled, one week) was “no obvious dehydration”; in series [1] (70° C., humidity not controlled, 1 day), “no obvious hydration”; in series [1] (70° C., humidity not controlled, 4 days), “partially dehydrated”; in series [1] (70° C., humidity not controlled, 7 days) it was “mostly dehydrated”; in series [1] (room temperature, 0% RH, one week), “no obvious dehydration”. For the same compound, the “Solid-state stability (XRPD)” value in series [1] (70° C., one hour) was “stable”; in series [1] (90° C., one half hour) it was “partially dehydrated”; in series [1] (90° C., one hour) it was “completely dehydrated”. In series [1] (non-micronized, three months), the “Chemical stability (HPLC)” value is “chemically stable”. In series [1] (non-micronized, three months), the “Crystal form transformation (XRPD and TGA)” value is recorded as “did not transform”. Further, the DVS weight gain in series [2] is on record as 0.1% gain (0–90% RH). For the same compound, the “Hygroscopicity (DVS)” value in series [2] is recorded as “largely non-hygroscopic”.

Source of the values: patent US20070208067A1, “Tablet Formulations and Processes” (Wyeth, priority 2006, published 2007).
